Assay results published in patent publication US10645927B2, “Antimicrobial wipe” (Carefusion 2200, Inc., priority 2015, dated 2020).
Where a name gives a salt, the structure may show the parent alone. Marks after values point to notes of the source that are not given here.

Test system: Staphylococcus aureus ATCC 29213
Test: Bactericidal activity by time kill method
Type: cell-based
Conditions: for Average Log: Baseline 7.123; for concentration required to deliver >3 log reduction in viable count: within 30 seconds of contact time
Experimental: Multiple surfactants in solution formulations were tested for use with the wipes. Effects of individual excipients such as phosphate buffer, polysorbate 20, nonoxynol-9, Cremophor® RH-40, dimethicone, and combinations of these products were investigated to determine the possibility of adverse effects on the antimicrobial efficacy of octenidine dihydrochloride. Bactericidal activities of octenidine dihydrochloride alone and in combinations with various excipients (Table 11) were tested by a time kill method using Staphylococcus aureus ATCC 29213 as test organism (Table 12).
Neutralizing effects of two similar surfactants, 0.5% Cremophor® RH40 and 0.5% polysorbate 20, on the bactericidal activity of octenidine dihydrochloride were tested using the Staphylococcus aureus ATCC 29213 as test organism (Table 13 and 14).

[1] = OCT 20 PPM, 0.5% Cremophor ® RH40, 30 seconds
[2] = OCT 20 PPM, 0.5% Polysorbate 20, 30 seconds
[3] = OCT 20 PPM, Aqueous, 30 seconds
[4] = OCT 100 PPM, 0.5% Cremophor ® RH40, 30 seconds
[5] = OCT 100 PPM, 0.5% Polysorbate 20, 30 seconds
[6] = OCT 100 PPM, Aqueous, 30 seconds
[7] = OCT 500 PPM, 0.5% Cremophor ® RH40, 30 seconds
[8] = OCT 500 PPM, 0.5% Polysorbate 20, 30 seconds
[9] = OCT 500 PPM, Aqueous, 30 seconds
[10] = OCT 4000 PPM, Full base formulation with Cremophor ® RH40
[11] = OCT 4000 PPM, Full base formulation with Polysorbate 20 (Table 13)

Structure (SMILES): CCCCCCCCN=c1ccn(CCCCCCCCCCn2ccc(=NCCCCCCCC)cc2)cc1 [OCT, octenidine dihydrochloride]
- Log Reduction (OCT 2 PPM in 0.1% Nonoxynol-9 in water, 30 seconds): 1.52
- Log Reduction (OCT 2 PPM in 0.25% Dimethicone in water, 30 seconds): 1.17
- Log Reduction (OCT 2 PPM in 1.5% Polysorbate 20 in water, 30 seconds): 0.30
- Log Reduction (OCT 2 PPM in Full base formulation with Nonoxynol-9 and Polysorbate 20 (Table 11), 30 seconds): 0.29
- Log Reduction (OCT 2 PPM in Full base formulation with Polysorbate 20 (Table 11), 30 seconds): 0.04
- Log Reduction (OCT 2 PPM in Phosphate Buffered Water, pH 6.0, 30 seconds): 1.39
- Log Reduction (OCT 2 PPM in Water, contact time 30 seconds): 3.41
- Log Reduction (OCT 20 PPM in 0.1% Nonoxynol-9 in water, 30 seconds): 2.94
- Log Reduction (OCT 20 PPM in 0.25% Dimethicone in water, 30 seconds): 1.41
- Log Reduction (OCT 20 PPM in 1.5% Polysorbate 20 in water, 30 seconds): 0.57
- Log Reduction (OCT 20 PPM in Full base formulation with Nonoxynol-9 and Polysorbate 20 (Table 11), 30 seconds): 0.58
- Log Reduction (OCT 20 PPM in Full base formulation with Polysorbate 20 (Table 11), 30 seconds): 0.35
- Log Reduction (OCT 20 PPM in Phosphate Buffered Water, pH 6.0, 30 seconds): 2.87
- Log Reduction (OCT 20 PPM in Water, contact time 30 seconds): 3.78
- Average Log Reduction [1]: 0.740
- Percent Reduction [1]: 81.808%
- Average Log [1]: 6.383
- Average Log Reduction [2]: 0.795
- Percent Reduction [2]: 83.979%
- Average Log [2]: 6.327
- Average Log Reduction [3]: 5.123
- Percent Reduction [3]: 99.999%
- Average Log [3]: 2.000
- Log Reduction (OCT 100 PPM in 0.1% Nonoxynol-9 in water, 30 seconds): 4.69
- Log Reduction (OCT 100 PPM in 0.25% Dimethicone in water, 30 seconds): 1.67
- Log Reduction (OCT 100 PPM in 1.5% Polysorbate 20 in water, 30 seconds): 1.01
- Log Reduction (OCT 100 PPM in Full base formulation with Nonoxynol-9 and Polysorbate 20 (Table 11), 30 seconds): 0.60
- Log Reduction (OCT 100 PPM in Full base formulation with Polysorbate 20 (Table 11), 30 seconds): 0.49
- Log Reduction (OCT 100 PPM in Phosphate Buffered Water, pH 6.0, 30 seconds): 4.78
- Log Reduction (OCT 100 PPM in Water, contact time 30 seconds): 4.65
- Average Log Reduction [4]: 1.472
- Percent Reduction [4]: 96.624%
- Average Log [4]: 5.651
- Average Log Reduction [5]: 1.205
- Percent Reduction [5]: 93.767%
- Average Log [5]: 5.917
- Average Log Reduction [6]: 5.123
- Percent Reduction [6]: 99.999%
- Average Log [6]: 2.000
- Log Reduction (OCT 500 PPM in 0.1% Nonoxynol-9 in water, 30 seconds): 5.12
- Log Reduction (OCT 500 PPM in 0.25% Dimethicone in water, 30 seconds): 2.12
- Log Reduction (OCT 500 PPM in 1.5% Polysorbate 20 in water, 30 seconds): 1.12
- Log Reduction (OCT 500 PPM in Full base formulation with Nonoxynol-9 and Polysorbate 20 (Table 11), 30 seconds): 1.40
- Log Reduction (OCT 500 PPM in Full base formulation with Polysorbate 20 (Table 11), 30 seconds): 0.76
- Log Reduction (OCT 500 PPM in Phosphate Buffered Water, pH 6.0, 30 seconds): 5.12
- Log Reduction (OCT 500 PPM in Water, contact time 30 seconds): 5.12
- Average Log Reduction [7]: 5.123
- Percent Reduction [7]: 99.999%
- Average Log [7]: 2.000
- Average Log Reduction [8]: 3.080
- Percent Reduction [8]: 99.917%
- Average Log [8]: 4.043
- Average Log Reduction [9]: 5.123
- Percent Reduction [9]: 99.999%
- Average Log [9]: 2.000
- Log Reduction (OCT 1000 PPM in Full base formulation with Nonoxynol-9 and Polysorbate 20, total kill, value is limit of detection): ≥ 3.94*
- Log Reduction (OCT 2000 PPM in Full base formulation with Nonoxynol-9 and Polysorbate 20, total kill, value is limit of detection): ≥ 4.14*
- Log Reduction (OCT 4000 PPM in Full base formulation with Nonoxynol-9 and Polysorbate 20, total kill, value is limit of detection): ≥ 4.14*
- Average Log Reduction [10]: 4.123
- Percent Reduction [10]: 99.992%
- Average Log [10]: 3.000
- Average Log Reduction [11]: 4.123
- Percent Reduction [11]: 99.992%
- Average Log [11]: 3.000
- percent reduction in viable count at 2 ppm (Staphylococcus aureus, ATCC29213, octenidine dihydrochloride alone, 2 PPM, contact time of 30 seconds): > 99.9%
- concentration required to show 99.9% reduction in viable count (dissolved in pH 6.0 phosphate buffered water): > 20 PPM
- microbicidal activity in the full base formulation (higher than 1000 PPM of octenidine dihydrochloride, full base formulation of Table 11): rapidly microbicidal
- concentration required for 99.9% reduction relative to the concentration in water (pH 6.0 phosphate buffered water vs water): > 10 times
- concentration required to deliver >3 log reduction in viable count (with 0.5% Cremophor® RH40): 500 PPM
- concentration required to deliver >3 log reduction in viable count (with 0.5% polysorbate 20): 500 PPM
